Data from EP2257297B1, “COMPOUNDS FOR USE IN THE TREATMENT OF ACNE, SEBORRHOEA AND SEBHORROEIC DERMATITIS, OR FOR REDUCING SEBUM SECRETION” (priority 2008, dated 2009).
Like-named read-outs stand apart in the source and are kept apart here. Blank lines part the entries; values can stand above or below the molecule they belong to.

Columns and labels:
human MC3R = assay: Human MC3R radioligand binding assay ([125I] NDP-MSH); details: Table 6, hMCR binding selectivity
Method: (§1) Radioligand binding assays were carried out using commercial or in-house prepared hMC1 R, hMC3R and hMC4R membranes and [^125I]
(§2) In-house plasma membranes were prepared from transfected mammalian cells (prepared as in Example 109, using plasmid DNA containing the human MC1 R, MC3R or MC4R gene or other gene of interest in a plasmid vector with a mammalian origin of replication): • Adherent cells were washed with warm Hanks buffered saline solution (HBSS). 1 mL of cold HBSS was added to each flask and the cells were scraped off with a rubber policeman. The scraped cells were added to a 50 mL tube on ice. The plates were then rinsed twice with 5 mL cold HBSS and this was also added to the tube. The cells were centrifuged at 1000 x g for 5 mins in a bench top centrifuge and the supernatant was decanted. The remaining cell pellet was resuspended in 0.25 M sucrose. The cell suspension was centrifuged again as previously and the pellet resuspended in 5 mL of 0.25 M sucrose containing protease inhibitors. The cells were homogenised by a 10 second pulse with an Ika disperser followed by 30 seconds on ice. The homogenisation and ice incubation was repeated three times. The mixture was then centrifuged at 1260 x g for 5 mins. […]

human MC1R = assay: Human MC1R radioligand binding assay ([125I] NDP-MSH); details: Table 6, hMCR binding selectivity
Method: as §1, §2

human MC4R = assay: Human MC4R radioligand binding assay ([125I] NDP-MSH); details: Table 6, hMCR binding selectivity
Method: as §1, §2

human MC5R = target: T1, human MC5R (Homo sapiens, UniProt P33032); assay: Human MC5R radioligand binding assay ([125I] NDP-MSH displacement, hMC5R membranes)
T1 construct: purchased Perkin Elmer RBXMC5M400UA
T1 sequence (P33032 whole entry): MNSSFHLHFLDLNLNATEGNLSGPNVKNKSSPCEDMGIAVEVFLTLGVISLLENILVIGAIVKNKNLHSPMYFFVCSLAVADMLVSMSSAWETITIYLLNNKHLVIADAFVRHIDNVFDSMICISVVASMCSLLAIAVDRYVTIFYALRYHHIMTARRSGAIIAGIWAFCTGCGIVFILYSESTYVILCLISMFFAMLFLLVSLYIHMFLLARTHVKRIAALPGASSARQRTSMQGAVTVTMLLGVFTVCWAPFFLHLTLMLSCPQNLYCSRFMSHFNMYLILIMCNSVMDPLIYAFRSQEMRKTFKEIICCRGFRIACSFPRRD
Procedure, shortened: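 Bound ligand collected by filtration on PEI-soaked GF/A filters and counted. Data fitted to a single-site competition model with fixed Hill coefficient to give EC50.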

[1] = hMC5R assay as in Example 102, compounds tested as trifluoroacetate or hydrochloride salts, or as free base

Compound: CCC(CC)CN1CC[C@@H](CNC(=O)/C=C/c2ccc(Cl)cc2)N[C@@H](CCN2CCCCC2)C1=O [Compound 348, (E)-3-(4-chlorophenyl)-N-(((3S,5S)-1-(2-ethylbutyl)-2-oxo-3-(2-(piperidin-1-yl)ethyl)-1,4-diazepan-5-yl)methyl)acrylamide]
IC50 (human MC3R): 1.83 µM

Compound: O=C(/C=C/c1ccc(Cl)cc1)NC[C@@H]1CCN(CC(c2ccccc2)c2ccccc2)C(=O)[C@H](CCN2CCCCC2)N1 [Compound 33, (E)-3-(4-chlorophenyl)-N-(((3S,5S)-1-(2,2-diphenylethyl)-2-oxo-3-(2-(piperidin-1-yl)ethyl)-1,4-diazepan-5-yl)methyl)acrylamide]
IC50 (human MC1R): 2.85 µM | IC50 (human MC4R): 6.06 µM | IC50 (human MC3R): 1.5 µM

Compound: CCC(CC)CN1CC[C@@H](CNC(=O)c2ccc(F)c(Cl)c2)N[C@@H](CCN)C1=O [Compound 353, N-(((3S,5S)-3-(2-aminoethyl)-1-(2-ethylbutyl)-2-oxo-1,4-diazepan-5-yl)methyl)-3-chloro-4-fluorobenzamide]
IC50 (human MC5R; [1]): < 10 µM

Compound: CCC(CN1CCC(CNC(=O)c2ccc3cc(Cl)ccc3c2)N[C@@H](C2CCN(C(C)C)CC2)C1=O)c1ccccc1 (mixture of isomers) [Compound 564, (S)-6-chloro-N-((3-(1-isopropylpiperidin-4-yl)-2-oxo-1-(2-phenylbutyl)-1,4-diazepan-5-yl)methyl)-2-naphthamide]
IC50 (human MC5R): < 0.1 µM

Other lines, results leading:

IC50 (human MC1R): 6.66 µM | IC50 (human MC4R): 3.28 µM
Compound: N=C(N)NCCC[C@@H]1N[C@H](CNC(=O)c2ccc3ccccc3c2)CCN(CC(c2ccccc2)c2ccccc2)C1=O [Compound 105, N-(((3S,5S)-1-(2,2-diphenylethyl)-3-(3-guanidinopropyl)-2-oxo-1,4-diazepan-5-yl)methyl)-2-naphthamide]

IC50 (human MC5R; [1]): < 0.1 µM
Compound: N=C(N)NCCC[C@@H]1N[C@H](CNC(=O)COc2ccc(Cl)cc2Cl)CCN(CC(c2ccccc2)c2ccccc2)C1=O [Compound 176, 2-(2,4-dichlorophenoxy)-N-(((3S,5S)-1-(2,2-diphenylethyl)-3-(3-guanidinopropyl)-2-oxo-1,4-diazepan-5-yl)methyl)acetamide]

IC50 (human MC5R; [1]): < 1 µM
Compound: N=C(N)NCCC[C@@H]1N[C@H](CNC(=O)c2cc(Cl)cc(Cl)c2)CCN(CC(c2ccccc2)c2ccccc2)C1=O [Compound 154, 3,5-dichloro-N-(((3S,5S)-1-(2,2-diphenylethyl)-3-(3-guanidinopropyl)-2-oxo-1,4-diazepan-5-yl)methyl)benzamide]
